Results on one compound are retold here after patent publication US7318917B2, “Rapid assays for neurotransmitter transporters” (Vanderbilt University, priority 2002, dated 2008).

In this assay the target is T1, SERT (Homo sapiens, UniProt P31645).
T1 construct: expressed in transfected cells
The experiment in a line: ASP+ uptake assay on FLEXstation, SERT-transfected HEK-293 cells. The format is cell-based. To be noted: FIG. 10C. How it is done: HEK-293 cells (American Type Culture Collection, Manassas, Va.) and HEK-293 cells stably transfected with SERT, NET, or DAT (Qian et al, 1997) were maintained in monolayer culture at 37° C., 5% CO2 in Dulbecco's modified Eagle's medium (DMEM) containing 10% fetal bovine serum, 2 mM glutamine, 100 units/ml penicillin, and 100 μg/ml streptomycin. Medium for the transfected lines was supplemented with G418 (250 μg/ml). Trypsin, glutamine, penicillin, streptomycin, G418, and phosphate-free DMEM were purchased from Life Technologies, Inc. or obtained from the Vanderbilt Media Core. For all transport assays, cells were plated on poly-D-lysine (0.1 mg/ml)-coated (0.1 mg/ml)-coated 96-well plates. […]
To limit the time delay between the addition of ASP^+ and the measurement of accumulation of ASP^+ during the kinetic assays, plates were divided in half and assayed one half at a time. […] After incubation, ASP^+ was added to the first 6 columns in 20 μL aliquots at indicated concentrations and accumulated fluorescence measured and recorded over time by the FLEXStation ultilizing SoftMax Pro Software. Then, ASP^+ was added to the last 6 columns and fluorescence accumulation measured and recorded. […]
Endpoint assays were conducted to evaluate the sensitivity of ASP^+ uptake to transporter antagonists. […] ASP^+ accumulation was measured after 10 minutes. […]

T1 sequence (P31645 whole entry): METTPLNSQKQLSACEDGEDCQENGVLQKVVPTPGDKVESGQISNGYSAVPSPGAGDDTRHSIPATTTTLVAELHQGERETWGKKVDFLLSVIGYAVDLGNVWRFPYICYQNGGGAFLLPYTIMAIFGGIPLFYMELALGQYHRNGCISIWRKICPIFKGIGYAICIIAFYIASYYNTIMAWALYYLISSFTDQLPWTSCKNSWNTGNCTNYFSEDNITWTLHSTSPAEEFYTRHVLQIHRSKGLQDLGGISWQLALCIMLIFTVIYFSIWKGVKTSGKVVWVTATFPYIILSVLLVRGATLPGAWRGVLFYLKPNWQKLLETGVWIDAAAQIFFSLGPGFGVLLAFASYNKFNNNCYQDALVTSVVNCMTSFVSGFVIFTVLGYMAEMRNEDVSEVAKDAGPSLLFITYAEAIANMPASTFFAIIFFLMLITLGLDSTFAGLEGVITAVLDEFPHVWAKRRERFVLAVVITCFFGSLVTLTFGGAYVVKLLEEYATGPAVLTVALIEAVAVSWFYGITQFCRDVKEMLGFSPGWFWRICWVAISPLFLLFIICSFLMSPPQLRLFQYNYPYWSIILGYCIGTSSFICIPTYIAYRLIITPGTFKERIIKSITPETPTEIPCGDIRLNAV

As for `CN(C)c1ccc(C=Cc2cc[n+](C)cc2)cc1` [ASP^+, 4-(4-dimethylaminostyrl)-N-methylpyridinium], the “concentration-response of ASP+ accumulation, SERT” value is “concentration-dependent accumulation”.
